{"source": "patent US20230392195A1", "about": "“SYNTHETIC LETHALITY-MEDIATED PRECISION ONCOLOGY VIA TUMOR TRANSCRIPTOME” (The United States of America, as Represented by the …, priority 2020, published 2023)", "origin": "cited, not measured here", "test_system": "advanced solid tumors", "details": "individual patient case: everolimus in an neuroendocrine cancer patient, cabozantinib in a colon cancer patient"}
{"smiles": "CO[C@H]1C[C@@H]2CC[C@@H](C)[C@@](O)(O2)C(=O)C(=O)N2CCCC[C@H]2C(=O)O[C@H]([C@H](C)C[C@@H]2CC[C@@H](OCCO)[C@H](OC)C2)CC(=O)[C@H](C)/C=C(\\C)[C@@H](O)[C@@H](OC)C(=O)[C@H](C)C[C@H](C)/C=C/C=C/C=C/1C", "note": "[everolimus]", "values": [{"measurement": "response to the therapy in the trial", "result": "responded"}]}
